# Assay results reported in patent US20130217652A1, “SULFINYLBENZYL AND THIOBENZYL DERIVATIVES AS SPHINGOSINE 1-PHOSPHATE (S1P) RECEPTOR MODULATORS” (ALLERGAN, INC., priority 2012, published 2013).
# pEC50: −log10 of the molar value.
# Molecular target: T1, human S1P1 receptor (Homo sapiens, UniProt P21453)
# T1 construct: expressed in transfected cells; membranes used
# Assay: GTP γ35S binding assay for S1P1 activity
# Type: biochemical
# Conditions: membranes of cells stably expressing the S1P1 receptor, test compounds 0.08 to 5,000 nM, 30 min at 25° C.
# Protocol: Compounds were synthesized and tested for S1P1 activity using the GTP γ^35S binding assay. These compounds may be assessed for their ability to activate or block activation of the human S1P1 receptor in cells stably expressing the S1P1 receptor.
# GTP γ^35S binding was measured in the medium containing (mM) HEPES 25, pH 7.4, MgCl2 10, NaCl 100, dithitothreitol 0.5, digitonin 0.003%, 0.2 nM GTP γ^35S, and 5 μg membrane protein in a volume of 150 μl. Test compounds were included in the concentration range from 0.08 to 5,000 nM unless indicated otherwise. Membranes were incubated with 100 μM 5′-adenylylimmidodiphosphate for 30 min, and subsequently with 10 μM GDP for 10 min on ice. Drug solutions and membrane were mixed, and then reactions were initiated by adding GTP γ^35S and continued for 30 min at 25° C. Reaction mixtures were filtered over Whatman GF/B filters under vacuum, and washed three times with 3 mL of ice-cold buffer (HEPES 25, pH 7.4, MgCl2 10 and NaCl 100). Filters were dried and mixed with scintillant, and counted for ^35S activity using a β-counter. Agonist-induced GTP γ^35S binding was obtained by subtracting that in the absence of agonist. Binding data were analyzed using a non-linear regression method. In case of antagonist assay, the reaction mixture contained 10 nM S1P in the presence of test antagonist at concentrations ranging from 0.08 to 5000 nM. […] Activity potency: S1P1 receptor from GTP γ^35S: nM, (EC50),
# T1 sequence (P21453 whole entry): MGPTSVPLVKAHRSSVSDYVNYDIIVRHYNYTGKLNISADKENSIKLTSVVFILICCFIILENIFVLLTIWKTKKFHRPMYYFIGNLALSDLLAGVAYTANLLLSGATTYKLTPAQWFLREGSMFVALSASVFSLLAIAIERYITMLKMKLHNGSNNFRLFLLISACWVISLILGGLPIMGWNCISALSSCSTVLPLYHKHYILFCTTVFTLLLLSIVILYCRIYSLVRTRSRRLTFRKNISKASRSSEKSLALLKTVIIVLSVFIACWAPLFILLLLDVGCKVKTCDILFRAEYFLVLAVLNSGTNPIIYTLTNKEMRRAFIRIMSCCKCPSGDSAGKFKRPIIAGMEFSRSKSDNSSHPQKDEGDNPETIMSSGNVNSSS
row,Structure (SMILES),pEC50
1,"Cc1ccc(CC(CCCCSc2ccc(CNCCC(=O)O)cc2)c2cccc(Cl)c2)cc1C (centres unmarked) [Compound 1, 3-[(4-{[5-(3-chlorophenyl)-6-(3,4-dimethylphenyl)hexyl]thio}benzyl)amino]propanoic acid]",6.80
2,"Cc1ccc(CC(CCCSc2ccc(CNCCCP(=O)(O)O)cc2)c2cc(F)cc(F)c2)cc1C (centres unmarked) [Compound 5, {3-[(4-{[4-(3,5-difluorophenyl)-5-(3,4-dimethylphenyl)pentyl]thio}benzyl)amino]propyl}phosphonic acid]",8.58
3,"Cc1ccc(CC(CCCC[S+]([O-])c2ccc(CNCCC(=O)O)cc2)c2cccc(Cl)c2)cc1C (centres unmarked) [Compound 2, 3-[(4-{[5-(3-chlorophenyl)-6-(3,4-dimethylphenyl)hexyl]sulfinyl}benzyl)amino]propanoic acid]",6.20
4,"Cc1ccc(CC(CCCSc2ccc(CNCCCP(=O)(O)O)cc2)c2cccc(Cl)c2)cc1C (centres unmarked) [Compound 6, {3-[(4-{[4-(3-chlorophenyl)-5-(3,4-dimethylphenyl)pentyl]thio}benzyl)amino]propyl}phosphonic acid]",9.12
5,"Cc1ccc(CC(CCC[S+]([O-])c2ccc(CNCCC(=O)O)cc2)c2cccc(Cl)c2)cc1C (centres unmarked) [Compound 3, 3-[(4-{[4-(3-chlorophenyl)-5-(3,4-dimethylphenyl)pentyl]sulfinyl}benzyl)amino]propanoic acid]",7.09
